Measurements as given in patent publication US12521393B2, “Cytotoxicity targeting chimeras for CCR2-expressing cells” (GLAXOSMITHKLINE INTELLECTUAL PROPERTY DEVELOPMENT LIMITED, priority 2021, dated 2026).

Columns and labels:
[1] = test system: endogenous target monocytes in human PBMC; assay: PBMC ex vivo monocyte depletion flow cytometry assay (Example 200); assay type: cell-based; details: with anti-cotinine antibody (SEQ ID NO: 11/12), 18-24 hours, EC50 in molar, read-out: Ex Vivo Depletion Assay pEC50 (converted)
Outline: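 Monocyte depletion is reported as pEC50, averaged or given individually across runs, and read by flow cytometry staining CD45, CD14 and CD4 with a viability dye. Compounds, diluted four-fold over 11 points from 1 mM DMSO stocks, were combined with 30 μg/mL Fc-enhanced anti-cotinine antibody and human PBMC, then incubated 18-24 h at 37° C.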

[2] = biological target: anti-cotinine antibody (SEQ ID NO: 11/12, rabbit variable region with human IgG1 Fc DE mutation); assay: SPR binding of anti-cotinine antibody to ARM compounds, Biacore T200, 37° C. (Example 202); details: SPR Biacore T200, 37° C., pH 7.4, antibody SEQ ID NO: 11/12 captured on protein A; Kd in molar
Description: Anti-cotinine antibodies having a heavy chain sequence of SEQ ID NO: 11 and a light chain sequence of SEQ ID NO: 12 (rabbit variable region with human IgG1 Fc domain containing a DE mutation (S239D/1332E)) were captured on one or more flow cells of a protein A sensor chip (Cytiva) using a Biacore T200 while reserving flow cell 1 as a reference. Following capture, a 3000 second wait step was included to reduce drift during compound analysis. ARM compounds of Formula (I) were then injected at 100 μL/min with 200 and 2000 second association and dissociation times. The entire experiment was run at 37° C. with running buffer containing 10 mM HEPES pH 7.4, 150 mM NaCl, 0.005% P20 and 1% DMSO. ARM compounds of Formula (I) were titrated with a top concentration of 200 nM using a 3-fold 5-point dilution series and a corresponding 5-injection buffer cycle was run for blank subtraction. Data were double referenced by subtracting the response of the reference flow cell from that of the antibody-containing flow cell and subsequently subtracting the referenced blank sensorgrams. Following compound analysis, the surface was regenerated using a 30 second injection of pH 1.5 glycine at a flow rate of 30 μL/min after which antibody was re-captured. The experiment was run using Biacore T200 control software and evaluated using Biacore T200 Evaluation software. Curves were fit with a 1:1 kinetic binding model to obtain kon (1/Ms), koff(1/s), Kd (M) determined as koff/kon, and residence time determined as 1/koff (s).
Anti-cotinine antibody was tested for binding to ARMs compounds of Formula (I) of the invention in the above assay in or more experimental runs and the results are shown in Table 5 below. Affinity is reported as a pKd value. The pKd value is the negative log of the Kd value, wherein the Kd value is the dissociation constant measured in molar (M) as noted above. For compounds tested in more than one experimental run, the pKd value is reported as an average

Compound	EC50 [1]	pKd of Antibody for ARM Compound of Formula (I) [2]
CC(C)N(C)[C@@H]1CCC(N2CC[C@H](Nc3ncnc4ccc(C(F)(F)F)cc34)C2=O)[C@H](NC(=O)CCOCCOCCOCCOCCOCCOCCOCCOCCNC(=O)[C@H]2CC(=O)N(C)[C@@H]2c2cccnc2)C1 (stereo partly drawn) [Example 42, (2S,3S)-N-(27-(((1R,2S,5R)-5-(isopropyl(methyl)amino)-2-((S)-2-oxo-3-((6-(trifluoromethyl)quinazolin-4-yl)amino)pyrrolidin-1-yl)cyclohexyl)amino)-27-oxo-3,6,9,12,15,18,21,24-octaoxaheptacosyl)-1-methyl-5-oxo-2-(pyriidn-3-yl)pyrrolidine-3-carboxamide]	3.16 nM	9.23
CC(C)N(C)[C@@H]1CC[C@H](N2CC[C@H](Nc3ncnc4ccc(C(F)(F)F)cc34)C2=O)[C@H](NC(=O)COCCNC(=O)CCOCCOCCNC(=O)CCNC(=O)[C@H]2CC(=O)N(C)[C@@H]2c2cccnc2)C1 [Example 50, (2S,3S)-N-(1-(((1R,2S,5R)-5-(Isopropyl(methyl)amino)-2-((S)-2-oxo-3-((6-(trifluromethyl)quinazolin-4-yl)amino)pyrrolidin-1-yl)cyclohexyl)amino)-1,7,17-trioxo-3,10,13-trioxa-6,16-diazanonadecan-19-yl)-1-methyl-5-oxo-2-(pyridin-3-yl)pyrrolidine-3-carboxamide]	0.126 nM	9.1485
CC(C)N(C)[C@@H]1CC[C@H](N2CC[C@H](Nc3ncnc4ccc(C(F)(F)F)cc34)C2=O)[C@H](NC(=O)[C@H]2C[C@H](NC(=O)CCOC[C@H]3CC[C@H](COCCNC(=O)[C@H]4CC(=O)N(C)[C@@H]4c4cccnc4)CC3)C2)C1 [Example 54, (2S,3S)-N-(2-(((1R,4S)-4-((3-(((1R,3R)-3-(((1R,2S,5R)-5-(Isopropyl(methyl)amino)-2-((S)-2-oxo-3-((6-(trifluoromethyl)quinazolin-4-yl)amino)pyrrolidin-1-yl)cyclohexyl)carbamoyl)cyclobutyl)amino)-3-oxopropoxy)methyl)cyclohexyl)methoxy)ethyl)-1-methyl-5-oxo-2-(pyridin-3-yl)pyrrolidine-3-carboxamide]	1 nM	9.5515
CN1C(=O)C[C@H](C(=O)NCC(=O)NCCOCCOCCC(=O)N[C@H]2CC[C@@H](C(=O)N[C@@H]3C[C@H](NC(C)(C)C)CC[C@@H]3N3CC[C@H](Nc4ncnc5ccc(C(F)(F)F)cc45)C3=O)CC2)[C@H]1c1cccnc1 [Example 65, (2S,3S)-N-(2-((2-(2-(3-(((1S,4s)-4-(((1R,2S,5R)-5-(tert-Butylamino)-2-((S)-2-oxo-3-((6-(trifluoromethyl)quinazolin-4-yl)amino)pyrrolidin-1-yl)cyclohexyl)carbamoyl)cyclohexyl)amino)-3-oxopropoxy)ethoxy)ethyl)amino)-2-oxoethyl)-1-methyl-5-oxo-2-(pyridin-3-yl)pyrrolidine-3-carboxamide]	100000 nM	8.648
CC(C)N(C)[C@@H]1CC[C@H](N2CC[C@H](Nc3ncnc4ccc(C(F)(F)F)cc34)C2=O)[C@H](NC(=O)[C@H]2C[C@@H](NC(=O)CCOCCOCCNC(=O)CNC(=O)[C@H]3CC(=O)N(C)[C@@H]3c3cccnc3)C2)C1 [Example 66, (2S,3S)-N-(2-((2-(2-(3-(((1S,3s)-3-(((1R,2S,5R)-5-(Isopropyl(methyl)amino)-2-((S)-2-oxo-3-((6-(trifluoromethyl)quinazolin-4-yl)amino)pyrrolidin-1-yl)cyclohexyl)carbamoyl)cyclobutyl)amino)-3-oxopropoxy)ethoxy)ethyl)amino)-2-oxoethyl)-1-methyl-5-oxo-2-(pyridin-3-yl)pyrrolidine-3-carboxamide]	0.631 nM	8.649
CC(C)N(C)[C@@H]1CC[C@H](N2CC[C@H](Nc3ncnc4ccc(C(F)(F)F)cc34)C2=O)[C@H](NC(=O)COCCOCCNC(=O)COCCNC(=O)CCNC(=O)[C@H]2CC(=O)N(C)[C@@H]2c2cccnc2)C1 [Example 74, (2S,3S)-N-(1-(((1R,2S,5R)-5-(isopropyl(methyl)amino)-2-((S)-2-oxo-3-((6-(trifluoromethyl)quinazolin-4-yl)amino)pyrrolidin-1-yl)cyclohexyl)amino)-1,10,16-trioxo-3,6,12-trioxa-9,15-diazaoctadecan-18-yl)-1-methyl-5-oxo-2-(pyridin-3-yl)pyrrolidine-3-carboxamide]	100000 nM	9.091
CC(C)N(C)[C@@H]1CC[C@H](N2CC[C@H](Nc3ncnc4ccc(C(F)(F)F)cc34)C2=O)[C@H](NC(=O)CCOCCOCCNC(=O)COCCNC(=O)CCNC(=O)[C@H]2CC(=O)N(C)[C@@H]2c2cccnc2)C1 [Example 75, (2S,3S)-N-(19-(((1R,2S,5R)-5-(Isopropyl(methyl)amino)-2-((S)-2-oxo-3-((6-(trifluoromethyl)quinazolin-4-yl)amino)pyrrolidin-1-yl)cyclohexyl)amino)-3,9,19-trioxo-7,13, 16-trioxa-4, 10-diazanonadecyl)-1-methyl-5-oxo-2-(pyridin-3-yl)pyrrolidine-3-carboxamide]	1 nM	9.103
CC(C)N(C)[C@@H]1CC[C@H](N2CC[C@H](Nc3ncnc4ccc(C(F)(F)F)cc34)C2=O)[C@H](NC(=O)COCCNC(=O)CCNC(=O)COCCOCCNC(=O)[C@H]2CC(=O)N(C)[C@@H]2c2cccnc2)C1 [Example 79, (2S,3S)-N-(18-(((1R,2S,5R)-5-(Isopropyl(methyl)amino)-2-((S)-2-oxo-3-((6-(trifluoromethyl)quinazolin-4-yl)amino)pyrrolidin-1-yl)cyclohexyl)amino)-8,12,18-trioxo-3,6,16-trioxa-9,13-diazaoctadecyl)-1-methyl-5-oxo-2-(pyridin-3-yl)pyrrolidine-3-carboxamide]	3.16 nM	9.126
CN1C(=O)C[C@H](C(=O)NCCOCC(=O)NCCOCC(=O)NCCOCCC(=O)N[C@@H]2C[C@H](NC(C)(C)C)CC[C@@H]2N2CC[C@H](Nc3ncnc4ccc(C(F)(F)F)cc34)C2=O)[C@H]1c1cccnc1 [Example 103, (2S,3S)-N-(18-(((1R,2S,5R)-5-(tert-Butylamino)-2-((S)-2-oxo-3-((6-(trifluoromethyl)quinazolin-4-yl)amino)pyrrolidin-1-yl)cyclohexyl)amino)-5,11,18-trioxo-3,9,15-trioxa-6, 12-diazaoctadecyl)-1-methyl-5-oxo-2-(pyridin-3-yl)pyrrolidine-3-carboxamide]	100000 nM	9.0985
CC(C)N(C)[C@@H]1CC[C@H](N2CC[C@H](Nc3ncnc4ccc(C(F)(F)F)cc34)C2=O)[C@H](NC(=O)COCCNC(=O)CCOCCNC(=O)COCCNC(=O)[C@H]2CC(=O)N(C)[C@@H]2c2cccnc2)C1 [Example 104, (2S,3S)-N-(18-(((1R,2S,5R)-5-(Isopropyl(methyl)amino)-2-((S)-2-oxo-3-((6-(trifluoromethyl)quinazolin-4-yl)amino)pyrrolidin-1-yl)cyclohexyl)amino)-5,12,18-trioxo-3,9,16-trioxa-6,13-diazaoctadecyl)-1-methyl-5-oxo-2-(pyridin-3-yl)pyrrolidine-3-carboxamide]	0.631 nM	9.051
CC(C)N(C)[C@@H]1CC[C@H](N2CC[C@H](Nc3ncnc4ccc(C(F)(F)F)cc34)C2=O)[C@H](NC(=O)COCCNC(=O)[C@H]2CC[C@@H](NC(=O)CCOCCNC(=O)[C@H]3CC(=O)N(C)[C@@H]3c3cccnc3)CC2)C1 [Example 109, (2S,3S)-N-(2-(3-(((1S,4R)-4-((2-(2-(((1R,2S,5R)-5-(Isopropyl(methyl)amino)-2-((S)-2-oxo-3-((6-(trifluoromethyl)quinazolin-4-yl)amino)pyrrolidin-1-yl)cyclohexyl)amino)-2-oxoethoxy)ethyl)carbamoyl)cyclohexyl)amino)-3-oxopropoxy)ethyl)-1-methyl-5-oxo-2-(pyridin-3-yl)pyrrolidine-3-carboxamide]	0.631 nM	8.951
